Measured values reported in publication PMC10539361, “Allosteric modulation of the fish taste receptor type 1 (T1R) family by the extracellular chloride ion” (Scientific Reports, 2023).

Target: T1, mfT1R2a/mfT1R3 (Oryzias latipes, UniProt Q2MHK2+Q2MHK5)
T1 sequence (Q2MHK5 20-819): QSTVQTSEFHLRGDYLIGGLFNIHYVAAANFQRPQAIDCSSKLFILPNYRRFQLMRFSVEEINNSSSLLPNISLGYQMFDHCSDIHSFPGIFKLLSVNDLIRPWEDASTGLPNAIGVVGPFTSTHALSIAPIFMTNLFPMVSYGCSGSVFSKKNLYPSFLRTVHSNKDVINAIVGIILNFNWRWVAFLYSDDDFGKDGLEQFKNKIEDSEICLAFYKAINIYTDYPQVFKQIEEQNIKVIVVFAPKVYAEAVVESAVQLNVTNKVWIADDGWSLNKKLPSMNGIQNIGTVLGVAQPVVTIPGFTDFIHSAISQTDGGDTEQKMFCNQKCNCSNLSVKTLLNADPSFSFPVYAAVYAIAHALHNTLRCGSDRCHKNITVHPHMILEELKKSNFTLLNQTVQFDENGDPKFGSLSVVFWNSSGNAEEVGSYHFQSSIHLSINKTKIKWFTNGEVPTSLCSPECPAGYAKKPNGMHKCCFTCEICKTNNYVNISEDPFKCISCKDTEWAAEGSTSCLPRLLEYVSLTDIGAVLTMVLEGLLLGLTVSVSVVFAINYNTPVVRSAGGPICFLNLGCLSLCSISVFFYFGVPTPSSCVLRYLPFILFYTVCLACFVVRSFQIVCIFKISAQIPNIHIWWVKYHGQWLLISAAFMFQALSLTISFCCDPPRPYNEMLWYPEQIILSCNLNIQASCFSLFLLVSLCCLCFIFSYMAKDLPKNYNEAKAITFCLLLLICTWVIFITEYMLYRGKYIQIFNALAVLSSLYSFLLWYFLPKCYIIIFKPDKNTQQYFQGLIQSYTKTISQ
T1 sequence (Q2MHK2 20-853): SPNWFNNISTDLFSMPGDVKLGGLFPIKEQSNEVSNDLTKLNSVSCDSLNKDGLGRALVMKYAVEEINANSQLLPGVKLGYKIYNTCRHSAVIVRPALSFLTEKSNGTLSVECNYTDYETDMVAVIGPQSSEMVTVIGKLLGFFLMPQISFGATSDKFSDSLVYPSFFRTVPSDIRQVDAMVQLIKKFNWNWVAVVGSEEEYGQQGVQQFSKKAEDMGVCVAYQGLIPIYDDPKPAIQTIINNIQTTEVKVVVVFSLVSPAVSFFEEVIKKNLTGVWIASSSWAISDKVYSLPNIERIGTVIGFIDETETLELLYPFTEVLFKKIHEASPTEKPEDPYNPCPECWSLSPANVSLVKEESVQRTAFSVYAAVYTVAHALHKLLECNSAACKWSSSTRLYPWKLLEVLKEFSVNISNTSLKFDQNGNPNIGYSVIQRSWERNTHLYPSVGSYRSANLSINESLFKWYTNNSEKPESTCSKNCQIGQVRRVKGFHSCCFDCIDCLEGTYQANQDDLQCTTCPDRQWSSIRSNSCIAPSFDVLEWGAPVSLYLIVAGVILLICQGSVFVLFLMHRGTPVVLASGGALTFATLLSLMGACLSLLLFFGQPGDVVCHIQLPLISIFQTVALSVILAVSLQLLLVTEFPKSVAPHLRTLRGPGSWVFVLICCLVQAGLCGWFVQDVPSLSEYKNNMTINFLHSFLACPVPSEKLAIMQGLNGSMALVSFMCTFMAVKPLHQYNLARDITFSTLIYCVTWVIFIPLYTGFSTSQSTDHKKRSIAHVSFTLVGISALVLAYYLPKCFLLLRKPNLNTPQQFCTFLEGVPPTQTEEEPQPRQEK
Assay: Effect of anions, cations and osmotic pressure on cellular responses, cells in 10 mM Cl- buffer, mfT1R2a/mfT1R3
Type: cell-based, medaka fish
Conditions: for response to fixed concentration of L-Gln on coapplication: coapplied with 200 µM L-Gln, final [Cl-]o up to 60 mM
Experimental: Cells were seeded in 96-well plates coated with ε-poly-L-lysine at approximately 70,000 cells per well. […] Fluorescence changes were monitored at 2 s intervals, as described above. […] Three independent experiments were conducted for each receptor, and representative results are shown as the mean ± SEM (n = 3 replicates). Statistical tests were conducted using KyPlot version 6.0 (KyensLab Inc., Tokyo, Japan). Statistical significance was set at p < 0.05.

Row | Structure (SMILES) | response to fixed concentration of L-Gln on coapplication (cells in 10 mM Cl- buffer) | additional anion concentration needed to significantly increase the response intensity to L-Gln (added to 10 mM Cl- buffer with 200 µM L-Gln) [mM] | cellular response to the salt alone (without agonist, cells in 10 mM Cl- buffer)
1 | O=C([O-])[C@H](O)[C@@H](O)[C@H](O)[C@H](O)CO.[Na+] [Na-gluconate, sodium gluconate] | did not enhance | – | –
2 | [Cl-].[Na+] [NaCl] | enhanced | 30 | did not elicit
